Results taken from patent US20250268248A1 (priority 2022, published 2025).

Key:
E. coli [1] = assay: microbe, parasite or virus in culture; type: cell-based, E. coli (ATCC 43894); conditions: Escherichia coli, 24 h, read-out: MIC E. coli
Source text: (§1) • Menthol, Guangdong Huaqingyuan Biotechnology Co., Ltd. • Thymol, Guangdong Huaqingyuan Biotechnology Co., Ltd. • Bromoisobutyryl bromide (BiBB), Aldrich • CuBr, Aldrich • N,N,N′,N″,N″-pentamethyldiethylenetriamine (PMDETA), Aldrich • 2-(N,N-dimethylamino)ethyl methacrylate (DMAEMA), Aldrich • Gram-positive 2 bacteria (S. aureus, ATCC 25923), China Center of Industrial Culture, commercially available from Guangdong Huankai Microbial Sci.&Tech. Co., Ltd., Guangdong, China • methicillin-resistant Staphylococcus aureus (ATCC 43300), China Center of Industrial Culture, commercially available from Guangdong Huankai Microbial Sci.&Tech. Co., Ltd., Guangdong, China • Gram-negative bacteria (E. coli, ATCC 43894), China Center of Industrial Culture, commercially available from Guangdong Huankai Microbial Sci.&Tech. Co., Ltd., Guangdong, China.
(§2) MIC (minimum inhibitory concentration) was used as an effective qualitative method of antibacterial ability assessment. MIC of antibacterial polymers were determined against S. aureus and E. coli by a serial dilution method. Bacteria LB agar plates were prepared from glycerol stock. Bacteria were inoculated with LB broth in an inoculation shaker at 200 rpm and 37° C., overnight.

S. aureus [2] = assay: MIC determination by serial dilution in LB broth; type: cell-based, S. aureus (ATCC 25923); conditions: Staphylococcus aureus, Table 5, 24 h, 37° C.
Source text: as §1, §2

MRSA [3] = assay: MIC determination by serial dilution in LB broth; type: cell-based, methicillin-resistant Staphylococcus aureus (ATCC 43300); conditions: Staphylococcus aureus, read-out: MIC MRSA
Source text: as §1
as §2, with “overnight. […] MIC was determined with no visible growth at 600 nm by spectrophotometer. […]” for “overnight.”

E. coli [4] = assay: MBC determination; type: cell-based, E. coli (ATCC 43894); conditions: Escherichia coli, read-out: MBC E. coli
Source text: as §1
(§3) The MBC was defined as the lowest concentration of an antibacterial agent that kills bacteria in the planktonic culture. MBC of antibacterial polymers and control were determined against S. aureus and E. coli by the reported method in publication “Antibacterial and Bacterially Antiadhesive Cotton Fabrics Coated by Cationic Fluorinated Polymers. ACS Appl Mater Interfaces 2018, 10 (7), 6124-6136.”

S. aureus [5] = assay: MBC determination; type: cell-based, S. aureus (ATCC 25923); conditions: Staphylococcus aureus; Table 5
Source text: as §1, §3

MRSA [6] = assay: MBC determination; type: cell-based, methicillin-resistant Staphylococcus aureus (ATCC 43300); conditions: Staphylococcus aureus, read-out: MBC MRSA
Source text: as §1, §3

Cc1ccc(C(C)C)c(O)c1 [Thymol]
250 µg/mL: MIC (E. coli [1]) | MIC (S. aureus [2]) | MIC (MRSA [3]) | MBC (E. coli [4]) | MBC (S. aureus [5]) | MBC (MRSA [6])
